System: myocardial cells derived from human iPS cells
Test: Drug response of myocardial cells determined with MEA probe
Conditions: for Drug response, Oriented fiber sheet 2: myocardial cells cultured 7 days with oriented fiber sheet 2, pitch 10 μm

COc1ccc(CCN(C)CCCC(C#N)(c2ccc(OC)c(OC)c2)C(C)C)cc1OC (stereo not shown) [Verapamil]
arrest (division stop) (0.3 μM verapamil, myocardial cells directly cultured on MEA probe): arrest (division stop) occurred | Drug response, Oriented fiber sheet 2: No arrest occurred. | Drug response, Oriented fiber sheet 2 (listed as verapamil): no an arrest (division stop) occurred | Drug response, MEA probe (myocardial cells cultured directly on MEA probe): Arrest occurred.

Source: US20210238528A1, “CELL SCAFFOLD MATERIAL” (Stem Cell & Device Laboratory, Inc., priority 2018, published 2021)
